# From patent US9867798B2, “Ladostigil therapy for immunomodulation” (priority 2012, dated 2018)
# Columns and labels:
# ChE = experiment: Cholinesterase inhibition in plasma and spleen of LPS injected mice (Example 5); format: in vivo, Balb-C mice; details: for Inhibition of ChE, plasma / Inhibition of ChE, spleen: 60 min after oral administration, LPS injected mice
# Description: (§1) In experiments on the effect of chronic treatment with ladostigil on ChE activity in mice drinking DSS, the spleen was rapidly removed as described above, together with a colon segment of about 0.5 cm in length taken from the proximal area. Spleen and colon segments were washed in cold phosphate buffered saline (PBS) before they were frozen at −80° C. For assay, the tissue was unfrozen and weighed and PBS was added to each tissue at a ratio of 1 mg tissue to 1 ml. Tissues were homogenized at a speed of 24,000 rpm in cold phosphate buffer pH 7 containing 0.1% Triton and centrifuged at 14000 rpm. Aliquots of plasma and the supernatant from the spleen and colon were incubated with acetylthiocholine and dinitro benzoic acid in phosphate buffer pH 7 and the rate of development of the yellow color was measured as described by Ellman et al, (1961). Percent inhibition of ChE activity was calculated by comparison with that of control mice given water by gavage. Protein concentration was determined by means of by Pierce BCA Protein Assay Kit (Thermo Scientific, USA) according to the manufacturer's instructions. It is noted, that ChE activity in the colon and spleen of mice is attributed mainly to that of AChE while that in mouse plasma is mainly attributable to BuChE.
# For the LPS experiment involving a single administration, ladostigil (10 or 20 mg/kg) in a volume of 1 ml/100 g or water (1 ml/100 g) were given by gavage to groups of 6-8 Balb-C male mice weighing 24-30 g and LPS as described above. […] Blood was taken into heparinized tubes and centrifuged at 14000 rpm at room temperature for 4 min to provide plasma and the spleen was rapidly removed, weighed, frozen in liquid nitrogen and stored at −80° C. until assayed. It is noted, that ChE inhibition in mouse plasma is mainly attributed to BuChE activity, and in mouse spleen—mainly to AChE activity.
# Percent inhibition of ChE activity was calculated by comparison with that of control mice given water by gavage as described in Example 1 above.
# [1] = tested on: LPS-induced TNF-α, IL-1β and IL-6 in spleen; experiment: Cytokines in spleen of mice injected with LPS, comparison to rivastigmine (Example 5); format: in vivo, Balb/c mice; details: for IL-1β in spleen / IL-6 in spleen / TNF-α in spleen: four hours
# Description: Male Balb/c mice (aged 8-9 weeks, weighing 25-30 gm) were given ladostigil (10 or 20 mg/kg) or rivastigmine (0.5 or 1 mg/kg) by gavage, or water (1 ml/100 g), followed 15 min later by an intra-peritoneal injection of LPS (10 mg/kg). Control mice were given LPS and water by gavage (1 ml/100 g). For measurement of cytokine levels in the spleen and blood the mice were sacrificed 4 h after drug administration, blood collected in heparinized tubes and centrifuged to obtain plasma and the spleen was rapidly removed and weighed. Plasma and spleen were frozen in liquid nitrogen and stored at −80° C. until use. For measurement of cytokine levels, the tissue was diluted in PBS containing 0.8% NaCl, 0.144% NaHPO4, 0.024% KH2PO4 and protease inhibitor cocktail (Sigma Israel, P8340) and homogenized in an Ultra-TURRAX® homogenizer at a speed of 24,000 rpm, centrifuged at 14000 g for 15 min at 4° C. Cytokines were detected in the supernatant by using ELISA kits for cytokines IL-1β, IL-6, and TNF-α (Biolegend) following the manufacturer's protocol. Each experiment was performed twice with 8 replicate measures in each experiment. Protein concentration in each sample was determined with Bradford reagent (Bio-RAD, 500-0006).
# [2] = tested on: cholinesterase (AChE and BuChE); experiment: Cholinesterase activity in spleen and colon of mice drinking DSS (Ellman); format: in vivo; details: rivastigmine 1 mg/kg/day
# Description: (§2) BALB/c OlaHsd male mice aged 8-9 weeks and weighing 25-30 g were purchased from Harlan (Jerusalem, Israel) and housed in standard cages of up to 5 per cage in the pathogen free Animal Facility of the Institute for Drug Research. All experiments were performed in accordance with the Principles of Laboratory Animal Care (NIH publication #85-23, revised 1985) protocols MD-09-12197-4. Acute colitis was induced in mice by administration of 5% DSS solution (M.Wt.=[…], MP Biomedicals, LLC, Solon, Ohio, USA) in water for 8 days. The DSS solution was freshly prepared every day. Mice were provided with food and water or DSS solution ad libitum during the experiment. They were divided into groups of 10 as follows: Vehicle control group: mice drank water and were given water (1 ml/100 gm) once daily by gavage for 8 days; Drug control group: mice drank water and were given ladostigil (10 mg/kg) by gavage once daily for 8 days. DSS untreated group: mice drank 5% DSS for 7 days and water on the 8th day and were given water (1 ml/100 g) once daily by gavage for 8 days. Drug treated group: mice drank 5% DSS followed by water as above and were given ladostigil (5 or 10 mg/kg) by gavage once daily for 8 days. The volume of 5% DSS solution consumed was measured for each group of mice and the average volume/mouse was calculated. On the eighth day, the mice were anesthetized by CO2 and sacrificed by cervical dislocation 2 h after the last dose of ladostigil. Samples of colon and spleen were taken for measurement of cytokines MPO, cytokines and ChE activity.
# as §1
# [3] = tested on: mice with DSS-induced colitis; experiment: Acute colitis induced by DSS in mice: body weight, stool, bleeding, DAI, colon length; format: in vivo, BALB/c OlaHsd mice
# Description: as §2
# Body weight, stool consistency and the presence of blood in the stools was recorded daily for each mouse. […] The score ranged between 0-4 for all three parameters and was composed as follows: Weight loss: none=0, 1-5%=1, 5-10%=2, 10-20%=3, >20%=4. Percent of weight loss on days 7 and 8 relative to the first day was calculated for all the groups. […] Bleeding: none=0, hemoccult=2, gross bleeding=4. The maximum DAI score was 4 based on a combination of scores of weight loss (relative to that on the first day of the experiment), stool consistency and bleeding, divided by 3. After sacrifice the length of the colon segment from the cecum to the rectum was measured.
# [4] = rivastigmine 0.5 mg/kg + LPS 10 mg/kg
# [5] = rivastigmine 1 mg/kg + LPS 10 mg/kg
structure (smiles),measurement,setting,value
"CCN(C)C(=O)Oc1cccc([C@H](C)N(C)C)c1 [Rivastigmine, reference compound]","Inhibition of ChE, plasma",ChE; rivastigmine 0.5 mg/kg,28 ± 4.5 %
same,"Inhibition of ChE, spleen",ChE; rivastigmine 0.5 mg/kg,32.6 ± 5.6 %
same,"Inhibition of ChE in plasma and spleen, compared with rivastigmine 0.5 mg/kg",ChE; rivastigmine 1 mg/kg,about twice as much
same,"Inhibition of ChE, plasma",ChE; rivastigmine 1 mg/kg,56.8 ± 6.1 %
same,"Inhibition of ChE, spleen",ChE; rivastigmine 1 mg/kg,65.8 ± 3.2 %
same,Effect on levels of the three cytokines in spleen,[1]; rivastigmine 0.5 mg/kg + LPS,had no effect on levels of any of the three cytokines
same,IL-1β in spleen,[1]; [4],551 ± 31 pg/mg
same,IL-6 in spleen,[1]; [4],569 ± 89 pg/mg
same,TNF-α in spleen,[1]; [4],16.8 ± 2.5 pg/mg
same,Effect on cytokine levels in spleen,[1]; rivastigmine 1 mg/kg + LPS,"significantly reduced IL-1β and IL-6, but not of TNF-α"
same,IL-1β in spleen,[1]; [5],440 ± 40 pg/mg
same,IL-6 in spleen,[1]; [5],462 ± 66 pg/mg
same,TNF-α in spleen,[1]; [5],16.5 ± 2.2 pg/mg
same,Inhibition of colonic ChE,[2],> 60%
same,Prevention of weight loss induced by DSS,"[3]; 5% DSS, rivastigmine",did not prevent the weight loss
same,Body weight decrease,[3]; mice given 1 mg/kg/day,4.7%
